According to patent publication US20160039880A1 (priority 2012, published 2016):
≈ marks a conversion by molar mass, not a printed value. Read-outs that look alike come from different tables or passages of the source.

Columns and labels:
[1] = target: Human recombinant cyclophilin A (Cyp A) (Homo sapiens, UniProt P62937); test: Protease-free PPIase assay;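 note: cis to trans isomerization of SUC-AAPF-pNA by 2 nM enzyme, read as absorbance at 330 nm over 300 s at 10 °C, catalytic rate corrected for uncatalyzed background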
Sequence of Human recombinant cyclophilin A (Cyp A) (P62937 whole entry): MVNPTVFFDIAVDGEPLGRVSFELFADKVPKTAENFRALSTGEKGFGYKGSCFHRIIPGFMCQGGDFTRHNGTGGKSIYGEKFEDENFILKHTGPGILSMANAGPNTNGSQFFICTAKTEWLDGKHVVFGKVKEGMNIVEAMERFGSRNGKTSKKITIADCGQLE

[2] = Water Solubility Assay (measured in pH 7.8 buffer); type: physicochemical; settings: kinetic from dmso stock;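 note: precipitation onset detected as rise in absorbance at 650 nm across increasing concentrations, after shaking for 18 h, blank wells receiving DMSO only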

Row | Ki [1] [nM] | solubility at 18 h ([2]; 25 °C, pH 7.8, aqueous buffer) [µM] | solubility at 18 h ([2]; 35 mM HEPES buffer pH 7.8, aqueous buffer, 35 mM HEPES pH 7.8, 1% DMSO, 25 °C, 18 h, read-out: Water Solubility Assay, concentration at which the compound remains in solution) [µM] | solubility at 18 h ([2]; 35 mM HEPES buffer pH 7.8, 25 °C, aqueous buffer, pH 7.8 buffer, read-out: Water Solubility Assay) [µM] | SMILES
1 | 12 | 75 to 100 (≈ 97.8 to 130 µg/mL) |  |  | CC[C@H]1NC(=O)[C@@H]([C@H](O)[C@H](C)CCN2CCOC(C)(C)C2)N(C)C(=O)[C@@H](C(C)C)N(C)C(=O)[C@@H](CC(C)C)N(C)C(=O)[C@@H](CC(C)C)N(C)C(=O)[C@H](C)NC(=O)[C@@H](C)NC(=O)C(CC(C)C)N(C)C(=O)[C@@H](C(C)C)NC(=O)[C@H](CC(C)C)N(C)C(=O)[C@@H](C)N(C)C1=O (stereo partly drawn) [Compound DS, [(3R,4R,5S)-1-(3,3-Dimethyl-morpholin-4-yl)-4-hydroxy-3-methyl-5-(methylamino)-hexanoic acid]^1[(R)-methyl-Sar]^3 cyclosporin A]
2 | 6.5 | > 100 |  |  | CC[C@H]1NC(=O)[C@@H]([C@H](O)[C@H](C)CCN2CCOC[C@@H]2C)N(C)C(=O)[C@@H](C(C)C)N(C)C(=O)[C@@H](CC(C)C)N(C)C(=O)[C@@H](CC(C)C)N(C)C(=O)[C@H](C)NC(=O)[C@@H](C)NC(=O)C(CC(C)C)N(C)C(=O)[C@@H](C(C)C)NC(=O)[C@H](CC(C)C)N(C)C(=O)[C@@H](C)N(C)C1=O (stereo partly drawn) [Compound DW, [(3R,4R,5S)-4-Hydroxy-3-methyl-5-(methylamino)-1-((S)-3-methyl-morpholin-4-yl)-hexanoic acid]^1[(R)-methyl-Sar]^3 cyclosporin A]
3 | 13 |  |  | > 100 | CC[C@H]1NC(=O)[C@@H]([C@H](O)[C@H](C)CCN2CCC3(CC2)OCCO3)N(C)C(=O)[C@@H](C(C)C)N(C)C(=O)[C@@H](CC(C)C)N(C)C(=O)[C@@H](CC(C)C)N(C)C(=O)[C@H](C)NC(=O)[C@@H](C)NC(=O)C(CC(C)C)N(C)C(=O)[C@@H](C(C)C)NC(=O)[C@H](CC(C)C)N(C)C(=O)[C@@H](C)N(C)C1=O (stereo partly drawn) [Compound DY, [(3R,4R,5S)-1-(1,4-Dioxa-8-aza-spiro[4.5]dec-8-yl)-4-Hydroxy-3-methyl-5-(methylamino)-hexanoic acid]^1[(R)-methyl-Sar]^3 cyclosporin A]

Continued, molecule first:

Row | SMILES | Ki [1] [nM] | solubility at 18 h ([2]; 25 °C, pH 7.8, aqueous buffer) [µM] | solubility at 18 h ([2]; 35 mM HEPES buffer pH 7.8, aqueous buffer, 35 mM HEPES pH 7.8, 1% DMSO, 25 °C, 18 h, read-out: Water Solubility Assay, concentration at which the compound remains in solution) [µM] | solubility at 18 h ([2]; 35 mM HEPES buffer pH 7.8, 25 °C, aqueous buffer, pH 7.8 buffer, read-out: Water Solubility Assay) [µM]
4 | CC[C@H]1NC(=O)[C@@H]([C@H](O)[C@H](C)CCN2CCOCC2)N(C)C(=O)[C@@H](C(C)C)N(C)C(=O)[C@@H](CC(C)C)N(C)C(=O)[C@@H](CC(C)C)N(C)C(=O)[C@H](C)NC(=O)[C@@H](C)NC(=O)[C@@H](CC(C)C)N(C)C(=O)[C@@H](C(C)C)NC(=O)[C@H](CC(C)C)N(C)C(=O)[C@@H](COC)N(C)C1=O [Compound D, [(3R,4R,5S)-4-Hydroxy-3-methyl-5-(methylamino)-1-N-morpholino-hexanoic acid]^1[(R)-methoxymethylene-Sar]^3 cyclosporin A] | 10 | 75 to 100 (≈ 97.9 to 131 µg/mL) |  | 
5 | CC[C@H]1NC(=O)[C@@H]([C@H](O)[C@H](C)CCCCCN2CCOCC2)N(C)C(=O)[C@@H](C(C)C)N(C)C(=O)[C@@H](CC(C)C)N(C)C(=O)[C@@H](CC(C)C)N(C)C(=O)[C@H](C)NC(=O)[C@@H](C)NC(=O)[C@@H](CC(C)C)N(C)C(=O)[C@@H](C(C)C)NC(=O)[C@H](CC(C)C)N(C)C(=O)CN(C)C1=O [Compound C, [(6R,7R,8S)-7-Hydroxy-6-methyl-8-(methylamino)-1-N-morpholinyl-nonanoic acid]^1 cyclosporin A] | 14 |  | > 100 | 
6 | CC[C@H]1NC(=O)[C@@H]([C@H](O)[C@H](C)CCN(C)c2ccccn2)N(C)C(=O)[C@@H](C(C)C)N(C)C(=O)[C@@H](CC(C)C)N(C)C(=O)[C@@H](CC(C)C)N(C)C(=O)[C@H](C)NC(=O)[C@@H](C)NC(=O)[C@@H](CC(C)C)N(C)C(=O)[C@@H](C(C)C)NC(=O)[C@H](CC(C)C)N(C)C(=O)[C@@H](C)N(C)C1=O [Compound DD, [(3R,4R,5S)-4-Hydroxy-3-methyl-5-(methylamino)-1-(methyl-pyridin-2-yl-amino)-hexanoic acid]^1[(R)-methyl-Sar]^3 cyclosporin A] | 4.8 | 25 to 50 (≈ 32.4 to 64.8 µg/mL) |  | 
